Experimental data reported in paper PMC8589421, “Impact of Type II LRRK2 inhibitors on signaling and mitophagy” (Biochemical Journal, 2021).

What was measured:
Type in all cases: cell-based, mouse
LRRK2 at Ser935 = experiment: LRRK2 Ser935 phospho-immunoblot in wild-type MEFs
Method: Wild-type and homozygous LRRK2 [R1441C] […] All cells were grown at 37°C, 5% (by vol) CO2 in a humidified atmosphere and regularly tested for mycoplasma contamination.
Inhibitors were dissolved in dimethyl sulfoxide (DMSO) (Sigma, #D2650). The inhibitors were diluted 1000× into cell medium. The equivalent volume of DMSO was added to the minus inhibitor controls. Experiments were performed in six-well plates, 10 cm dishes or 15 cm dishes depending on the amount of cell extract required.
Lysates were incubated on ice for 30 min and clarified by centrifugation at 20 800×g at 4°C for 20 min. Supernatants were quantified by Bradford assay (Bio-Rad Protein Assay Dye Reagent Concentrate #5000006) and samples prepared in 1× lithium dodecyl sulfate sample buffer final concentration (NuPage LDS Sample buffer 4× Invitrogen, #NP0008). When not deployed immediately, lysates were snap-frozen in liquid nitrogen and stored at −80°C until use.
Cell extracts were mixed with a quarter of a volume of NuPage LDS Sample buffer 4× Invitrogen and heated at 95°C for 5 min. […] At the end of electrophoresis, proteins were electrophoretically transferred onto the nitrocellulose membrane (GE Healthcare, Amersham Protran Supported 0.45 µm NC) at 100 V for 90 min on ice in the transfer buffer (48 mM Tris–HCl and 39 mM glycine supplemented with 20% methanol). Transferred membrane was blocked with 5% (w/v) skim milk powder dissolved in TBS-T [20 mM Tris–HCl, pH 7.5, 150 mM NaCl and 0.1% (v/v) Tween 20] at room temperature for 1 h. The membrane was typically cropped into three pieces, namely the ‘top piece’ (from the top of the membrane to 75 kDa), the ‘middle piece’ (between 75 and 30 kDa) and the ‘bottom piece’ (from 30 kDa to the bottom of the membrane). All primary antibodies were used at 1 μg/ml final concentration and incubated in TBS-T containing 5% (by mass) bovine serum albumin with exception of α-tubulin and GAPDH antibodies that were diluted 1 : 5000 and 1 : 2000, respectively. The top piece was incubated with the indicated rabbit anti-LRRK2 phosphorylation site antibody multiplexed with mouse anti-LRRK2 C-terminus total antibody. The middle piece was incubated with mouse anti-GAPDH or anti-α-tubulin antibody. The bottom pieces were incubated with indicated total and phospho-Rab antibodies. Membranes were incubated in primary antibody overnight at 4°C. Prior to secondary antibody incubation, membranes were washed three times with TBS-T for 10 min each. […] Membranes were washed with TBS-T for three times with a 10 min incubation for each wash. Protein bands were acquired via near infrared fluorescent detection using the Odyssey CLx imaging system and quantified using the Image Studio software.

[1] = test system: basal mitophagy, LRRK2[G2019S] MEFs; experiment: mito-QC basal mitophagy in LRRK2[G2019S] knock-in primary MEFs; conditions: 24 h, 30–300 nM GZD-824, GSK3357679A 100 nM positive control
Method: (§1) To assess mitophagy, wild type, G2019S knock in, and LRRK2 knock out primary mouse embryonic fibroblasts (MEFs) were derived, from time-mated pregnant females at E12.5 as previously described. Briefly, cells were plated on glass coverslips and incubated with DMEM (Gibco, 11960-044) supplemented with 10% FBS, 2 mM L-Glutamine (Gibco, 2503-081), 1% non-essential amino acids (Gibco, 11140-035), 1% Antibiotics (Penicillin/Streptomycin 100 U/ml penicillin and 100 µg/ml streptomycin; Gibco), and 150 µM β-Mercaptoethanol (Gibco, 21985-023) at 37°C under a humidified 5% CO2 atmosphere. […] GSK3357679A 100 nM (Ding et al., in prep) was used as a positive control. At the end of the treatment, MEFs were briefly washed twice in DPBS (Gibco, 14190-094), and fixed in 3.7% Paraformaldehyde pH 7.00 (Sigma, P6148), 200 mM HEPES, for 20 min. Cells were then washed two times with DMEM, 10 mM HEPES, and then incubated for 10 min with DMEM, 10 mM HEPES. […] Images were acquired using a Nikon Eclipse Ti-S fluorescence microscope with a 63× objective. Images were analyzed using the mito-QC counter as previously described. Experiments were performed in 3–4 independent experiments and data was analyzed with a one-way ANOVA followed by a Dunnett's multiple comparison test using the GraphPad Prism software (version 8.4.3 (686)).

[2] = test system: basal mitophagy, LRRK2 knock-out MEFs; experiment: mito-QC basal mitophagy in LRRK2 knock-out primary MEFs; conditions: 24 h
Method: as §1

Cc1ccc(C(=O)Nc2ccc(CN3CCN(C)CC3)c(C(F)(F)F)c2)cc1C#Cc1cnc2[nH]ncc2c1 [GZD-824]
effect on LRRK2 Ser935 phosphorylation (LRRK2 at Ser935; MEFs, 2 h dose response): did not induce dephosphorylation
Ser935 phosphorylation over 24 h time course (LRRK2 at Ser935; wild-type MEFs, 1 μM, 24 h): unaffected
effect on LRRK2 Ser935 phosphorylation (LRRK2 at Ser935; wild-type MEFs, 10 μM, 2 h, Supplemental Figure S2A): did not reduce LRRK2 phosphorylation at Ser935 significantly
stimulation of basal mitophagy [1]: ~2 fold
impact on basal mitophagy in LRRK2 knock-out cells [2]: neither GZD-824 or GSK3357679A impacted basal mitophagy
